The values below come from US20260327264A1, “PEPTIDE INHIBITORS OF INTERLEUKIN-23 RECEPTOR” (Zealand Pharma A/S, priority 2023, published 2026).

Test [1] has as its target T1, human IL-23R (Homo sapiens, UniProt Q5VWK5).
T1 construct: Nanoluc luciferase (Nluc); secretion signal encoded by the plasmid (not specified); expressed in transfected cells; crude membranes used in the assay
T1 sequence (Q5VWK5 22-629): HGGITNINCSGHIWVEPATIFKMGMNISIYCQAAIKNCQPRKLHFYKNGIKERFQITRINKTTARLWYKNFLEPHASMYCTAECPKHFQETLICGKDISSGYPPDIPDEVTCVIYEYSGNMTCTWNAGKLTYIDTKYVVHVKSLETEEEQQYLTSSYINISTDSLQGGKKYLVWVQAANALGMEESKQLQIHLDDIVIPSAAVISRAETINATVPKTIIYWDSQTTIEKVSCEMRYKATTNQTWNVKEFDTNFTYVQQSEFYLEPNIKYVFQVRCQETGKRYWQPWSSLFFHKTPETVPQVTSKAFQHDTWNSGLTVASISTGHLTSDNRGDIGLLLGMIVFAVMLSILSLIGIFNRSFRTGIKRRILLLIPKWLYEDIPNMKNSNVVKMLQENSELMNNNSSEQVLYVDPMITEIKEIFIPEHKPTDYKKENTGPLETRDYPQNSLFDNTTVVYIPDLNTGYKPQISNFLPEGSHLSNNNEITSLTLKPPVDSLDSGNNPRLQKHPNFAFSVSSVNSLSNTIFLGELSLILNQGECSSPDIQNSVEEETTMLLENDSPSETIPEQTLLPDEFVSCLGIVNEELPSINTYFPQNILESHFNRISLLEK
Briefly: Binding assay: displacement of fluorophore (TAMRA)-labelled reference compound from human IL-23R (BRET, Nluc-IL23R fusion protein membranes). The conditions noted are these: for Emax: read-out: % displacement (hIL-23R binding).

The subject of test [2] is IL-23 mediated STAT3 signalling (DB cells). Briefly: Functional inhibition of IL-23 mediated STAT3 signalling (phospho-STAT3 Tyr705) in DB cells. The class given is cell-based, human. The conditions noted are these: for hIL-23 (pSTAT3) antagonist % inhibition: Table 3-2, maximal inhibitory response, EC80 of hIL-23. The text has this:
Upon binding of IL-23, the IL-23R forms a heterodimer signalling complex together with IL-12R β1, which through the JAK2/STAT3 pathway promotes phosphorylation of STAT3 to form phospho-STAT3.
For compounds tested in this assay, the response was normalized relative to control values to calculate the IC50 and maximal inhibitory response from a concentration response curve of the compound in presence of a fixed concentration of human IL-23.
The assay procedure was as follows. […] Following preincubation of the DB cells with inhibitor for 15 min in a cell incubator (37° C., 5% CO2), 20 μL of the prepared 3× the EC80 of hIL-23 solution was added to each well and incubated for 90 min in a cell incubator (37° C., 5% CO2). For some wells buffer only or IL-23 only corresponding to the EC80 was added to obtain readouts needed for normalization. To terminate the assay, the plate was spun at 1000 G for 5 min to pellet cells, the supernatant removed using an 8-channel manual pipette, and then added 50 μL/well Complete Lysis Buffer from the MSD STAT3 kit (Cat #K150SVD, Mesoscale) to the cell pellet. To completely lyse cells to release phospho-STAT3 for detection, the plate was shaken for 10 min at room temperature (500 rpm) sealed with aluminium foil and placed at −80° C. for a minimum of 15 min. Detection of the phospho-STAT3 level in the cell lysate from the individual wells was determined using the MSD STAT3 kit (Cat #K150SVD, Mesoscale) and read on a Meso QuickPlex SQ 120 plate reader (Mesoscale).
For data analysis raw data counts from the Meso QuickPlex SQ 120 plate reader were normalized relative to the response by the EC80 of hIL-23 alone (no compound added) and the buffer level.

Where [3] appears, read: Table 3-2, EC80 of hIL-23, read-out: hIL-23 (pSTAT3) antagonist IC50.

Like-named read-outs stand apart in the source and are kept apart here. *1 amine or outer side, *2 acyl side, *3 side chain or, on linkers, in order; H or OH if unused. Where a SMILES comes first, the peptide text is derived from it. Bridges are numbered along the chain shown (N, C = ends). [ ]: non-standard residue; d: D form. 2Nal = N[C@@H](Cc1ccc2ccccc2c1)C(=O)O; AEF = NCCOc1ccc(C[C@H](N)C(=O)O)cc1; X1 = O=C(Cc1ccc(CN[*:1])cc1)[*:2]; 3Pal = N[C@@H](Cc1cccnc1)C(=O)O; αMeL = CC(C)C[C@](C)(N)C(=O)O; CH2COCH2 = O=C(C[*:1])C[*:2]; NMeS = CN[C@@H](CO)C(=O)O; Dab = NCC[C@H](N)C(=O)O

In the case of `CC(C)C[C@]1(C)NC(=O)[C@H](Cc2c[nH]c3ccccc23)NC(=O)[C@H](Cc2c[nH]c3ccccc23)NC(=O)[C@@H]2CSCC(=O)CSC[C@H](NC(=O)[C@H]([C@@H](C)O)NC(=O)[C@@H](NC(=O)CN)CSCC(=O)CSC[C@@H](C(=O)N[C@@H](CO)C(N)=O)NC1=O)C(=O)N[C@@H](Cc1c[nH]c3ccccc13)C(=O)N[C@@H](CCC(=O)O)C(=O)N2` (single isomer, unassigned) [I5 (isomer 3), H-GC(1a)TC(2a)WEC(2a)WW[2-Me-Leu]C(1a)S-[NH2], reference compound], the Emax in test [1] was 102%. Besides, the “hIL-23 (pSTAT3) antagonist % inhibition” value in test [2] is 91%.
In the case of `CC(C)C[C@]1(C)NC(=O)[C@H](Cc2ccc3ccccc3c2)NC(=O)[C@H](Cc2ccc(OCCN)cc2)NC(=O)[C@@H]2CCNC(=O)CC[C@H](NC(=O)[C@H](CO)NC(=O)Cc3ccc(cc3)CNC(=O)CC[C@@H](C(=O)N[C@@H](CCN)C(=O)N[C@@H](Cc3cccnc3)C(=O)N[C@H](Cc3c[nH]cn3)C(N)=O)NC1=O)C(=O)N[C@@H](Cc1c[nH]c3ccccc13)C(=O)N[C@@H](CCC(N)=O)C(=O)N2` [Compound 10, [4-Aminomethyl-phenylacetyl](1c)*SE(2c)WQ[Dab](2c)[Y(2-aminoethoxy)][2-Nal][2-Me-Leu]E(1c)[Dab][3-(3-Pyridyl)-Ala][{d}H]-[NH2]] ([X1]SEWQ[Dab][AEF][2Nal][αMeL]E[Dab][3Pal][dH]-NH2; lactam 3-6, N-10), the Emax in test [1] came out at 91%. Moreover, the half-maximal inhibitory concentration (IC50) worked out at 38 pM in test [2] (EC80 of hIL-23, read-out: IC50 (pSTAT3)) and 38 pM in test [2] (setting [3]). For the same molecule, the “hIL-23 (pSTAT3) antagonist % inhibition” value in test [2] came out at 99%.
`CC(C)C[C@]1(C)NC(=O)[C@H](Cc2ccc3ccccc3c2)NC(=O)[C@H](Cc2ccc(OCCN)cc2)NC(=O)[C@@H]2CCNC(=O)CC[C@H](NC(=O)[C@H](CO)NC(=O)Cc3ccc(cc3)CNC(=O)CC[C@@H](C(=O)NCC[C@H](N)C(=O)N[C@@](C)(Cc3cccnc3)C(N)=O)NC1=O)C(=O)N[C@@H](Cc1c[nH]c3ccccc13)C(=O)N[C@@H](CCC(N)=O)C(=O)N2` [Compound 15, [4-Aminomethyl-phenylacetyl](1c)*SE(2c)WQ[Dab](2c)[Y(2-aminoethoxy)][2-Nal][2-Me-Leu]E(1c)[Iso-Dab][2-Me-3-(3-Pyridyl)-Ala]-[NH2]]: in test [1], the Emax amounted to 96%. In addition, the IC50 in test [2] (setting [3]) stood at 12000 pM. In addition, in test [2], the “hIL-23 (pSTAT3) antagonist % inhibition” value is given as 97%.
The matching figures for `CNC(=O)[C@H](Cc1cncnc1)NC(=O)[C@H](CCN)NC(=O)[C@@H]1CCC(=O)NCc2ccc(cc2)CC(=O)N[C@@H](CO)C(=O)N[C@H]2CCC(=O)NCC[C@H](NC(=O)[C@H](CCC(N)=O)NC(=O)[C@H](Cc3c[nH]c4ccccc34)NC2=O)C(=O)N[C@@H](Cc2ccc(OCCN)cc2)C(=O)N[C@@H](Cc2ccc3ccccc3c2)C(=O)N[C@@](C)(CC(C)C)C(=O)N1` [Compound 19, [4-Aminomethyl-phenylacetyl](1c)*SE(2c)WQ[Dab](2c)[Y(2-aminoethoxy)][2-Nal][2-Me-Leu]E(1c)[Dab][3-(3,5-Pyrimidyl)-Ala]-[NHMe]]: 103%, 160 pM and 100%.
Turning to `CNC(=O)[C@H](Cc1cccnc1)NC(=O)[C@H](CCN)NC(=O)[C@@H]1CCC(=O)NCc2ccc(cc2)CC(=O)N[C@@H](CO)C(=O)N[C@H]2CCC(=O)NCC[C@H](NC(=O)[C@H](C)NC(=O)[C@H](Cc3c[nH]c4ccccc34)NC2=O)C(=O)N[C@@H](Cc2ccc(OCCN)cc2)C(=O)N[C@@H](Cc2ccc3ccccc3c2)C(=O)N[C@@](C)(CC(C)C)C(=O)N1` [Compound 22, [4-Aminomethyl-phenylacetyl](1c)*SE(2c)WA[Dab](2c)[Y(2-aminoethoxy)][2-Nal][2-Me-Leu]E(1c)[Dab][3-(3-Pyridyl)-Ala]-[NHMe]] ([X1]SEWA[Dab][AEF][2Nal][αMeL]E[Dab][3Pal]-NHMe; lactam 3-6, N-10), the IC50 in test [1] was found to be 35 pM. In addition, the “hIL-23 (pSTAT3) antagonist % inhibition” value in test [2] stood at 101%.
`CNC(=O)[C@H](Cc1cccnc1)NC(=O)[C@H](CCN)NC(=O)[C@@H]1CCC(=O)NCc2ccc(cc2)CC(=O)N[C@@H](CO)C(=O)N[C@H]2CCC(=O)NCC[C@H](NC(=O)[C@H](Cc3ccccc3)NC(=O)[C@H](Cc3c[nH]c4ccccc34)NC2=O)C(=O)N[C@@H](Cc2ccc(OCCN)cc2)C(=O)N[C@@H](Cc2ccc3ccccc3c2)C(=O)N[C@@](C)(CC(C)C)C(=O)N1` [Compound 23, [4-Aminomethyl-phenylacetyl](1c)*SE(2c)WF[Dab](2c)[Y(2-aminoethoxy)][2-Nal][2-Me-Leu]E(1c)[Dab][3-(3-Pyridyl)-Ala]-[NHMe]] ([X1]SEWF[Dab][AEF][2Nal][αMeL]E[Dab][3Pal]-NHMe; lactam 3-6, N-10): in test [1], the half-inhibitory concentration (IC50) worked out at 120 pM and the Emax worked out at 97%. The IC50 in test [2] (setting [3]) amounted to 5200 pM. Besides, the “hIL-23 (pSTAT3) antagonist % inhibition” value in test [2] worked out at 99%.
As to `CNC(=O)[C@H](Cc1cccnc1)NC(=O)[C@H](CCN)NC(=O)[C@@H]1CCC(=O)NCc2ccc(cc2)CC(=O)N[C@@H](C)C(=O)N[C@H]2CCC(=O)NCC[C@H](NC(=O)[C@H](CCC(N)=O)NC(=O)[C@H](Cc3c[nH]c4ccccc34)NC2=O)C(=O)N[C@@H](Cc2ccc(N3CCOCC3)cc2)C(=O)N[C@@H](Cc2ccc3ccccc3c2)C(=O)NC(C)(C)C(=O)N1` [Compound 51, [4-aminomethyl-phenylacetyl](1c)*AE(2c)WQ[Dab](2c)[F(4-morpholine)][2Nal][Aib]E(1c)[Dab][3-(3-Pyridyl)-alanyl]-[NHMe]], in test [1], the IC50 was 73 pM and the Emax came out at 105%. The 50% inhibitory concentration (IC50) in test [2] (setting [3]) worked out at 380 pM. Besides, the “hIL-23 (pSTAT3) antagonist % inhibition” value in test [2] was 96%.
Turning to `CC(=O)N[C@H]1CCSC[C@@H](C(=O)N[C@@H](Cc2ccc(OCCN)cc2)C(=O)N[C@@H](Cc2c[nH]c3ccccc23)C(=O)N[C@@](C)(CCCCN)C(=O)N[C@@H](CCC(=O)O)C(=O)N[C@@H](CC(N)=O)C(=O)NCC(N)=O)NC(=O)[C@H](CCC(N)=O)NC(=O)[C@H](Cc2c[nH]c3ccccc23)NC(=O)[C@H]([C@@H](C)O)NC(=O)[C@H](CCC(N)=O)NC1=O` [Compound C, [Ac]-[Abu](16i)QTWQC(16i)[Y(2-aminoethoxy)]W[2-Me-Lys]ENG-[NH2], reference compound], in test [1], the Emax turned out to be 102%.
Turning to `CC(C)C[C@@H]1NC(=O)[C@H](Cc2c[nH]c3ccccc23)NC(=O)[C@H](Cc2c[nH]c3ccccc23)NC(=O)[C@@H]2CSCC(=O)CSC[C@H](NC(=O)[C@H](CO)NC(=O)[C@@H](NC(=O)[C@@H](N)CC(=O)O)CCC(=O)NCCCC[C@@H](C(=O)N[C@@H](CCCNC(=N)N)C(N)=O)NC1=O)C(=O)N[C@@H](Cc1c[nH]c3ccccc13)C(=O)N[C@@H](CCC(N)=O)C(=O)N2` [Ref 4, H-DE(1c)SC(2a)WQC(2a)WWLK(1c)R-[NH2], reference compound] (HELM PEPTIDE1{D.E.S.C.W.Q.C.W.W.L.K.R.[am]}|CHEM1{[O=C(C[*:1])C[*:2]]}$PEPTIDE1,PEPTIDE1,2:R3-11:R3|PEPTIDE1,CHEM1,4:R3-1:R1|PEPTIDE1,CHEM1,7:R3-1:R2$$$V2.0), in test [1], the Emax was 100%. In addition, the IC50 in test [2] (setting [3]) amounted to 850000 pM. The “hIL-23 (pSTAT3) antagonist % inhibition” value in test [2] is 87%.
For `CC(C)C[C@]1(C)NC(=O)[C@H](Cc2ccc3ccccc3c2)NC(=O)[C@H](Cc2ccc(OCCN)cc2)NC(=O)[C@@H]2CSCC(=O)CSC[C@H](NC(=O)[C@H](CO)N(C)C(=O)Cc3ccc(cc3)CNC(=O)CC[C@@H](C(=O)N[C@@H](CCN)C(N)=O)NC1=O)C(=O)N[C@@H](Cc1c[nH]c3ccccc13)C(=O)N[C@@H](CCC(N)=O)C(=O)N2` [Ref 141, [4-Aminomethyl-phenylacetyl](1c)*[N—Me-Ser]C(2a)WQC(2a)[Y(2-aminoethoxy)][2-Nal][2-Me-Leu]E(1c)[Dab]-[NH2], reference compound] ([X1][NMeS]CWQC[AEF][2Nal][αMeL]E[Dab]-NH2; linker 3-6 via CH2COCH2; lactam N-10), in test [1], the Emax stood at 102%.
